The test system of experiment [1] is parent BW cell line (BW5147 murine thymoma). Kind of experiment: Culture of parent BW cell line in ganciclovir (HSVTK activity assessment). The format is cell-based. Particulars: 5 μM ganciclovir; parent BW cell line without HSVTK. As for the experimental part:
(§1) BW subclones with varying levels of GFPCre expression were tested for functional Cre recombinase and HSVTK activity. The pCT.1 (pCT.1^AMP) vector was transiently transfected into each cell line followed by recovery and analysis of plasmid configuration (pCT.1^AMP vs. pCT.1^CAT). Maximal conversion would result in equimolar ratios of pCT.1^AMP and pCT.1^CAT due to the reversible nature of the reaction. […] The kinetics of conversion in cell lines expressing different levels of GFPCre was evaluated. To assess HSVTK activity, all of the cell lines were cultured in 5 μM ganciclovir. […] No spontaneous revertants were isolated, which, given the culture conditions, puts the spontaneous reversion rate at <10^−8.

In experiment [2] the test system is GFPCre:IRES:HSVTK expressing clones (BW5147 subclones). Kind of experiment: Culture of GFPCre:IRES:HSVTK expressing BW clones in ganciclovir (HSVTK activity assessment). Format: cell-based, murine. The conditions noted are these: 5 μM ganciclovir.
Excerpt: 2.1 GFPCre:IRES:HSVTK cassette function: A retroviral vector was generated with the cDNA encoding the GFPCre fusion protein followed by an […] ribosomal entry site (IRES) and the cDNA encoding HSVTK (FIG. 2). In addition, the upstream activating sequence (UAS) which binds the Gal4 transcriptional trans-activator was cloned upstream of the GFPCre cDNA (FIG. 2). The BW5147 thymoma was infected with this retrovirus, and subclones (BW-1, 5, 41 and 50) expressing different levels of the GFPCre fusion protein were identified by flow cytometry (FIG. 3).
as §1

For the compound `Nc1nc(O)c2ncn(COC(CO)CO)c2n1` [ganciclovir], the “growth in media with ganciclovir” value in experiment [1] is “normal growth”. In experiment [2], the “growth/survival in media with ganciclovir” value is given as “all died”.
